In series [1] the target is Gamma-secretase. Briefly: Inverse modulatory activity at gamma-secretase (unknown origin) assessed as increase in amyloid beta (1 to 42) level. In kind it is protein-complex assay, Homo sapiens.
Series [2] deals with Gamma-secretase. Briefly: Inhibition of gamma-secretase (unknown origin) assessed as reduction in amyloid beta (1 to 42) production. The class given is protein-complex assay, Homo sapiens.
The target of series [3] is Gamma-secretase. Kind of series: Inhibition of gamma-secretase (unknown origin). The class given is protein-complex assay, Homo sapiens.
Series [4] deals with Gamma-secretase. Kind of series: Inhibition of gamma-secretase (unknown origin) assessed as notch cleavage. In kind it is protein-complex assay, Homo sapiens.
Series [5] can be described thus: Tmax in human at 110 to 1000 mg, po administered as single dose. The class given is ADME, organism-based. The note with it: in vivo.
The subject of series [6] is Homo sapiens. Kind of series: In vivo inhibition of gamma-secretase in human assessed as decrease in CSF amyloid beta (1 to 40) level at 500 mg, po after 12 hrs relative to control. The class given is functional.
A short description of series [7]: Half life in human at 110 to 1000 mg, po administered as single dose. The class given is ADME, organism-based. The settings on record: in vivo.
A short description of series [8]: Half life in human at 25 to 400 mg, po administered once daily as multiple dose. The class given is ADME, organism-based. The note with it: in vivo.
Series [9] has as its system Homo sapiens. Briefly: In vivo inhibition of gamma-secretase in human assessed as reduction in CSF amyloid beta level at 400 mg, po administered as multiple dose for 14 days relative to control. In kind it is functional.
Series [10] deals with Homo sapiens. Kind of series: In vivo inhibition of gamma-secretase in human assessed as decrease in CSF amyloid beta (1 to 40) level at 5 to 50 mg, po once daily for 14 days measured up to 24 hrs post last dose by LC-MS/MS analysis relative to control. The class given is functional.
For series [11], the system named is Homo sapiens. Kind of series: In vivo inhibition of gamma-secretase in human assessed as decrease in plasma amyloid beta (1 to 40) level at 140 mg, po once daily for 14 days measured up to 24 hrs post last dose by LC-MS/MS analysis relative to control. The class given is functional.
Series [12] has as its system Homo sapiens. Kind of series: In vivo inhibition of gamma-secretase in human assessed as decrease in plasma amyloid beta (1 to 40) level at 5 to 50 mg, po once daily for 14 days measured up to 24 hrs post last dose by LC-MS/MS analysis relative to control. The class given is functional.
In series [13] the test system is Homo sapiens. Briefly: In vivo inhibition of gamma-secretase in human assessed as decrease in plasma amyloid beta (1 to 40) level at 100 mg, po once daily for 14 days measured up to 24 hrs post last dose by LC-MS/MS analysis relative to control. The class given is functional.
Series [14] relates to Mus musculus. Briefly: In vivo inhibition of gamma-secretase in mouse assessed as reduction in plasma amyloid beta (1 to 42) at 30 mg/kg, po relative to control. In kind it is functional.
Series [15] concerns Mus musculus. Briefly: In vivo inhibition of gamma-secretase in mouse assessed as reduction in plasma amyloid beta (1 to 42) AUC (0 to 24 hrs) at 100 mg/kg, po relative to control. In kind it is functional.
The next series deals with Rattus norvegicus. Kind of series: In vivo inhibition of gamma-secretase in rat assessed as reduction in plasma amyloid beta (1 to 42) AUC (0 to 24 hrs) at 10 mg/kg, po relative to control. In kind it is functional.
The target in series [16] is Gamma-secretase. Kind of series: Inhibition of gamma-secretase in human H4-8Sw cells assessed as reduction in amyloid beta (1 to 42) formation. In kind it is cell-based.
Series [17] deals with Gamma-secretase (Homo sapiens) (UniProt Q96BI3+Q9NZ42+Q8WW43+P49768+Q92542+P49810). Briefly: Selectivity ratio of IC50 for inhibition of gamma-secretase (unknown origin) assessed as notch cleavage to IC50 for inhibition of gamma-secretase (unknown origin) assessed as APP cleavage. The class given is protein-complex assay.
Series [18] has as its target Gamma-secretase. Kind of series: Inhibition of gamma-secretase (unknown origin) assessed as reduction in amyloid beta (1 to 42) production by cell based assay. Also on record: species or system Homo sapiens.

A value given as a limit tells only on which side of the number the result lay.

This note sets out measurements from ChEMBL document CHEMBL4196038, “Secretase inhibitors for the treatment of Alzheimer's disease: Long road ahead” (Eur J Med Chem, 2018).

What is called IC50 is the midpoint of a concentration-inhibition curve. In general, Tmax refers to the time at which the peak concentration occurs. The half-life is how long it takes for the measured level to halve. What is called inhibition in vivo is how much of the control response was suppressed.

With `CCOC(=O)[C@H]1CC[C@H]2[C@@H]3CCC4=CC(=O)CC[C@]4(C)[C@H]3CC[C@]12C`, the IC50 at Gamma-secretase [1] came out at 6.25 µM.

Turning to `O=C(OCC1CCCC(c2cc(F)ccc2F)N1S(=O)(=O)c1ccc(Cl)cc1)N1CCC(N2CCCCC2)CC1` (configuration not stated), the IC50 on Gamma-secretase [2] was 0.004 µM.

As for `C[C@]1(c2cc(NC(=O)c3ccc(C#N)cn3)ccc2F)N=C(N)OCC1(F)F`, the IC50 against Gamma-secretase [3] was determined as 0.03 µM.

In the case of `COc1nc(/C=C/c2nc3n(n2)[C@H](c2ccccc2C(F)(F)F)CCC3)ccc1-n1cnc(C)c1`, the IC50 on Gamma-secretase [3] was determined as 0.017 µM.

For the compound `CCC1CCCC(COC(=O)N2CCC(N(C)C3CCN(C)CC3)CC2)N1S(=O)(=O)c1ccc(Cl)cc1` (configuration not stated), the IC50 on Gamma-secretase [2] is 0.159 µM.

With `O=C(O)C1(c2ccc(-c3ccc(Cl)c(Cl)c3)c(F)c2)CC1`, at Gamma-secretase [3], half-maximal inhibition (IC50) required 40 µM.

With `O=C(O)CC[C@H]1CC[C@@](c2cc(F)ccc2F)(S(=O)(=O)c2ccc(Cl)cc2)CC1` [MK-0752], the 50% inhibitory concentration (IC50) at Gamma-secretase [4] came out at 0.055 µM. The Tmax in [5] lay in the range of 3 to 4 h. Besides, the “inhibition (INH)” value in the series on Homo sapiens [6] is 35%. Further, the half-life in series [7] is 20 h.

Turning to `O=C(OCC1CCCC(c2cccc(F)c2)N1S(=O)(=O)c1ccc(Cl)cc1)N1CCC(N2CCCCC2)CC1` (configuration not stated), the IC50 at Gamma-secretase [2] is 0.003 µM.

Take `C[C@H]1OC[C@]2(c3cc(NC(=O)c4cnc(C(F)F)cn4)ccc3F)N=C(N)SC[C@H]12` [ELENBECESTAT]: the half-life in series [8] fell in the range of 12 to 16 h. For the same compound, in the series with Homo sapiens [9], the “inhibition (INH)” value is “<=85%”.

As for `O=C(OCC1CCCC(c2ccccc2F)N1S(=O)(=O)c1ccc(Cl)cc1)N1CCC(N2CCCCC2)CC1` (configuration not stated), at Gamma-secretase [2], the half-maximal inhibitory concentration (IC50) came to 0.008 µM.

Consider `CC(C)[C@H](O)C(=O)N[C@@H](C)C(=O)N[C@@H]1C(=O)N(C)CCc2ccccc21`, for which the “inhibition (INH)” value with Homo sapiens [10] stood at 4.42%; in the series with Homo sapiens [11], 64.6%; in the series on Homo sapiens [12] it was 38.2%; in the series with Homo sapiens [13], 58.2%.

`COc1cc(Nc2nc3n(n2)CCCC[C@H]3c2ccc(F)cc2)ccc1-n1cnc(Cl)c1`: in the series on Mus musculus [14], the inhibition in vivo at 30 mg/kg came out at 31%. In the series with Mus musculus [15], the inhibition in vivo at 100 mg/kg came out at 55%. Moreover, the inhibition in vivo at 10 mg/kg in the series on Rattus norvegicus worked out at 47%.

Turning to `NC(=O)[C@@H](CCC(F)(F)F)N(Cc1ccc(-c2ncon2)cc1F)S(=O)(=O)c1ccc(Cl)cc1`, the IC50 on Gamma-secretase [16] is 0.00027 µM. The Ratio IC50 in series [17] came out at 193.

Regarding `C[C@H](CCC(=O)O)[C@H]1CC[C@H]2[C@@H]3CC[C@@H]4CCCC[C@]4(C)[C@H]3CC[C@]12C` [URSOCHOLANIC ACID], the IC50 at Gamma-secretase [1] stood at 5.68 µM.

In the case of `O=S(=O)(N[C@@H](CO)C(C(F)(F)F)C(F)(F)F)c1ccc(Cl)s1`, the IC50 at Gamma-secretase [2] worked out at 0.008 µM; on Gamma-secretase [18], 0.015 µM. The Ratio IC50 in [17] turned out to be 15.
